According to ChEMBL document CHEMBL1127400 (J Med Chem, 1994):
pIC50, pKi: −log10 of the molar value.

Tests used:
[1] = biological target: T1, Sodium-dependent dopamine transporter (Rattus norvegicus, UniProt P23977); assay: Binding affinity was determined against cocaine binding site by measuring the ability of compound to displace bound [3H]dopamine from rat caudate-putamen tissue; type: tissue-based
[2] = biological target: T1, Sodium-dependent dopamine transporter; assay: Binding affinity was determined against cocaine receptor by measuring the ability of compound to displace bound [3H]-3 from rat caudate-putamen tissue; type: tissue-based
[3] = biological target: T1, Sodium-dependent dopamine transporter; assay: Tested for its ability to inhibit high affinity uptake of [3H]dopamine into rat caudate-putamen tissue; type: tissue-based
[4] = Tested for its ability to inhibit high affinity uptake of [3H]-dopamine into rat caudate-putamen tissue; type: functional, tissue-based

T1 sequence (P23977 whole entry): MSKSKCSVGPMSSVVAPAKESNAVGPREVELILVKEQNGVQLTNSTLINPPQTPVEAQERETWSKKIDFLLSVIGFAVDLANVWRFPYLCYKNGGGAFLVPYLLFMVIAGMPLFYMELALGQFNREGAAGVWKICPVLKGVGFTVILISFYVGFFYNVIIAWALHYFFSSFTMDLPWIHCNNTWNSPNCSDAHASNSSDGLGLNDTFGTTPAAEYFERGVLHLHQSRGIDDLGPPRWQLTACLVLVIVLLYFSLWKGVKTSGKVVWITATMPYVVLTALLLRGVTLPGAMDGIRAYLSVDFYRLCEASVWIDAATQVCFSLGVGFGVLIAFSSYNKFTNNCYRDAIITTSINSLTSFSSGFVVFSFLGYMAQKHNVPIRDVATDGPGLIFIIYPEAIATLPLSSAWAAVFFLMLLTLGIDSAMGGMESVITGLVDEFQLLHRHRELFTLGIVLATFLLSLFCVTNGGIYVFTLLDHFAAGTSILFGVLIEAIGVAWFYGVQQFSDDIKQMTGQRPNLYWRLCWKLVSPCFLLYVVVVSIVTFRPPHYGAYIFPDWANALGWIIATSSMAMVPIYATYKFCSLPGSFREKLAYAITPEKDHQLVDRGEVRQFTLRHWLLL

| Compound | pKi [1] | pKi [2] | pIC50 [3] | pIC50 [4] |
| --- | --- | --- | --- | --- |
| COC(=O)[C@@H]1C2CC[C@H](C[C@@H]1c1ccccc1)N2C | 7.48 | 6.50 | 6.43 | – |
| CN1C2CC[C@@H]1C[C@H](c1ccccc1)C2CC/C=C/C(=O)O (stereo partly drawn) | 7.70 | – | – | 6.69 |
| CN1C2CC[C@@H]1C[C@H](c1ccccc1)C2CCCO (stereo partly drawn) | 7.96 | – | 7.19 | – |
| COC(=O)CCC1C2CC[C@H](C[C@@H]1c1ccccc1)N2C (stereo partly drawn) | 7.64 | – | 6.78 | – |
| COC(=O)/C=C/C1C2CC[C@H](C[C@@H]1c1ccccc1)N2C (stereo partly drawn) | 7.66 | – | 6.91 | – |
| CN1C2CC[C@@H]1C[C@H](c1ccccc1)C2/C=C/CO (stereo partly drawn) | 7.59 | – | – | 6.80 |
